Consider 4 compounds from ChEMBL document CHEMBL3400048, “N-acylated sulfonamide congeners of fosmidomycin lack any inhibitory activity against DXR” (Bioorg Med Chem Lett, 2015).

One data set deals with Trichophyton rubrum. Briefly: Antimicrobial activity against Trichophyton rubrum at 64 uM. Type of data set: functional, organism-based.
The subject of another data set is Leishmania infantum. Briefly: Antimicrobial activity against Leishmania infantum at 64 uM. Format: functional, organism-based.
In the next data set the test system is Plasmodium falciparum. As to the kind of experiment: Antimicrobial activity against Plasmodium falciparum K1 at 64 uM. Format: functional, organism-based.
The subject of another data set is Candida albicans. As to the kind of experiment: Antimicrobial activity against Candida albicans at 64 uM. Format: functional, organism-based.
Another data set has as its system Aspergillus fumigatus. As to the kind of experiment: Antimicrobial activity against Aspergillus fumigatus at 64 uM. Format: functional, organism-based.
Data set [1] deals with T1, 1-deoxy-D-xylulose 5-phosphate reductoisomerase (Escherichia coli K-12) (UniProt P45568).
T1 sequence (whole entry): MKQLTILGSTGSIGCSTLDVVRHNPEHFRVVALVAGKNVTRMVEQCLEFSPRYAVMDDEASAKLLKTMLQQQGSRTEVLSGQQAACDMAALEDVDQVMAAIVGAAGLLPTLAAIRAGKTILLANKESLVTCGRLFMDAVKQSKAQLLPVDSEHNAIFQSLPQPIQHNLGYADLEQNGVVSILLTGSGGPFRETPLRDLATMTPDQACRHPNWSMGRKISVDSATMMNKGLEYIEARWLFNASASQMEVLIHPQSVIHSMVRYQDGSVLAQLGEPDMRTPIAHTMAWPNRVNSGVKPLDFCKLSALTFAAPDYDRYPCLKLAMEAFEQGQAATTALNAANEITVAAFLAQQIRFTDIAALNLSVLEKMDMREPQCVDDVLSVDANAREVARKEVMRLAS
As to the kind of experiment: Inhibition of Escherichia coli DXR activity using DXP as substrate assessed as residual activity preincubated at 100 uM for 5 mins before substrate addition measured every 3 seconds for 180 seconds by spectrophotometric assay.

The next data set relates to Staphylococcus aureus. Briefly: Antimicrobial activity against Staphylococcus aureus at 64 uM. Type of data set: functional, organism-based.
For another data set, the system named is Escherichia coli. Briefly: Antimicrobial activity against Escherichia coli at 64 uM. Format: functional, organism-based.
The next data set relates to Trypanosoma cruzi. Briefly: Antimicrobial activity against Trypanosoma cruzi at 64 uM. Type of data set: functional, organism-based.
The next data set relates to MRC5. As to the kind of experiment: Cytotoxicity against human MRC5 cells at 64 uM. Type of data set: cell-based. As to conditions: mrc5, 64 µM.
A further data set relates to Trypanosoma brucei. As to the kind of experiment: Antimicrobial activity against Trypanosoma brucei at 64 uM. Type of data set: functional, organism-based.
In another data set the test system is Pseudomonas aeruginosa. As to the kind of experiment: Antimicrobial activity against Pseudomonas aeruginosa at 64 uM. Type of data set: functional, organism-based.

Active and inactive are the calls of the source. No cut-off for these calls is given here.

For the compound `CC(=O)N(O)CCCS(=O)(=O)NC(=O)Cc1ccccc1`, the result in the data set on Trichophyton rubrum, in the data set with Leishmania infantum, with Plasmodium falciparum, in the data set on Candida albicans, in the data set with Aspergillus fumigatus and in the data set with Staphylococcus aureus was inactive. Also, the result with Escherichia coli, with Trypanosoma cruzi, in the data set with Trypanosoma brucei and with Pseudomonas aeruginosa was inactive. The Activity is 100% in data set [1] and “Non-toxic” with MRC5.
Consider `CC(=O)N(O)CCCS(=O)(=O)NC(=O)CCc1ccccc1`, for which the result with Trichophyton rubrum, with Leishmania infantum, in the data set with Plasmodium falciparum, with Candida albicans, in the data set on Aspergillus fumigatus and with Staphylococcus aureus was inactive. The result in the data set on Escherichia coli, in the data set on Trypanosoma cruzi, in the data set on Trypanosoma brucei and in the data set on Pseudomonas aeruginosa was inactive. The Activity was 100% in [1] and “Non-toxic” in the data set with MRC5.
Regarding `CC(=O)NS(=O)(=O)CCCN(O)C(C)=O`, the outcome in the data set on Trichophyton rubrum, with Leishmania infantum, with Plasmodium falciparum, in the data set on Candida albicans, in the data set with Aspergillus fumigatus and in the data set on Staphylococcus aureus was inactive. Besides, the outcome in the data set with Escherichia coli, in the data set on Trypanosoma cruzi, in the data set on Trypanosoma brucei and in the data set on Pseudomonas aeruginosa was inactive. The Activity in [1] was 100%; in the data set on MRC5, “Non-toxic”.
Consider `CC(=O)N(O)CCCS(=O)(=O)NC(=O)c1ccccc1`, for which the result in the data set on Trichophyton rubrum, in the data set on Leishmania infantum, in the data set with Plasmodium falciparum, with Candida albicans, in the data set on Aspergillus fumigatus and in the data set on Staphylococcus aureus was inactive. For the same compound, the result in the data set on Escherichia coli, in the data set on Trypanosoma cruzi, with Trypanosoma brucei and in the data set with Pseudomonas aeruginosa was inactive. Further, the Activity is 100% in [1] and “Non-toxic” in the data set with MRC5.
